Article PMC4409382, “Structural Analysis of the 14-3-3ζ/Chibby Interaction Involved in Wnt/β-Catenin Signaling” (PLoS ONE, 2015)
Residue numbers refer to the chain shown, from its start. Square brackets hold non-standard residues; d marks the D form. Peptide text beside a SMILES is read from it. pS = N[C@@H](COP(=O)(O)O)C(=O)O

Legend:
Format in all cases: binding
14-3-3ζΔC12 = target: T1, 14-3-3ζΔC12 (Homo sapiens, UniProt P63104); test: ITC of Cby peptides titrated into 14-3-3ζΔC12; details: 14-3-3ζΔC12 in ITC cell; for n (binding stoichiometry of monomeric 14-3-3 and Cby peptide): 25°C
T1 construct: The 14-3-3ζΔC12, where the 12 C-terminal residues were deleted, was then generated from the full-length construct; His tag (TEV-cleavable) (N, cleaved yes); made in house; host or cells: Escherichia coli BL21 (DE3) pLysS
T1 sequence (P63104 1-233 limits assumed): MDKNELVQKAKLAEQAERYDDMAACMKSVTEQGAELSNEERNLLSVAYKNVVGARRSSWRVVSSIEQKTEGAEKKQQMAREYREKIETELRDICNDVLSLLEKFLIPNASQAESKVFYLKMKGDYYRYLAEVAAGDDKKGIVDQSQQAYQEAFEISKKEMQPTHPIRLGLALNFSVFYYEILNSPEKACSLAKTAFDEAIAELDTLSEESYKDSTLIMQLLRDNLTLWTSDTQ
Description: (§1) The human14-3-3ζ ORF purchased from GeneCopoeia was transferred into Gateway pDEST17 vector (Invitrogen). The 14-3-3ζΔC12, where the 12 C-terminal residues were deleted, was then generated from the full-length construct using QuikChange II Site-Directed Mutagenesis Kit (Strategene). Both full-length 14-3-3ζ and 14-3-3ζΔC12 were expressed as N-terminally His-tagged protein in Escherichia coli (E. coli) BL21 (DE3) pLysS in M9 medium. For unlabeled protein, protein expression was induced at an O.D.600 of 0.9 by adding 0.75 mM IPTG at 18°C for 24 h. The ^15N, ^13C, ^2H labeled 14-3-3ζΔC12 was produced by growing E. coli in deuterated M9 medium. Cells adapted to 70% D2O were used to inoculate a 1 L culture of M9 prepared in 100% D2O. Cells were grown at 37°C and overexpression was induced at an O.D.600 of 0.6 with 0.75 mM IPTG. After a 60-h induction at 18°C, the cells were harvested. All 14-3-3ζ constructs used in this study were purified from the crude lysate by affinity chromatography using Ni Sepharose Fast Flow beads (Amersham Biosciences). The tag was then cleaved by overnight incubation with His-tagged tobacco etch virus (TEV) protease at 25°C. The cleaved 14-3-3ζ, which retains an N-terminal glycine, was purified by passing the mixture through Ni Sepharose Fast Flow beads. The final yields for the 14-3-3ζ proteins were ~50 mg per L of M9 media (including deuterated media).
(§2) The Cby peptides used in this study were purchased from GenScript USA Inc. and the TUFTS University Core Facility. From GenScript USA Inc.: Cby 13-mer (NH2-^12KTPPRKSASLSNL^24-COOH), Cby S20D 13-mer (NH2-^12KTPPRKSADLSNL^24-COOH), Cby S20E 13-mer (NH2-^12KTPPRKSAELSNL^24-COOH), pCby 13-mer (NH2-^12KTPPRKSApSLSNL^24-COOH) and pCby 18-mer ((NH2-^12KTPPRKSApSLSNLHSLDR^29-COOH). From TUFTS: pCby 7-mer (Ac-^16RKSApSLS^22-NH2), pCby 11-mer (NH2-^12KTPPRKSApSLS^22-NH2), pCby S22P 7-mer (Ac-^16RKSApSLP^22-NH2), pCby S22P 13-mer (NH2-^12KTPPRKSApSLPNL^24-COOH) and pCby S22P 18-mer ([…]). Peptides were dissolved and dialyzed in 50 mM sodium phosphate, 100 mM NaCl at pH 6.8 for ITC and NMR experiments.
(§3) ITC experiments were performed on a VP-ITC instrument (MicroCal) at 25°C. The protein and peptide samples were dialyzed into a buffer containing 50 mM sodium phosphate, 100 mM NaCl, 1 mM DTT at pH 6.8 and degassed before the experiments. In a typical experiment, 5 μL aliquots of ~1–2 mM peptide were titrated stepwise into the 1.4 mL sample cell containing ~100–200 μM 14-3-3ζ. The association constant (Ka), molar binding stoichiometry (n) and the binding enthalpy (ΔH), entropy (ΔS) and Gibbs free energy (ΔG) were determined by fitting the binding isotherm to a one-site model with MicroCal Origin7 software. All ITC experiments were performed in duplicate. A duplicate set of thermodynamic derived binding parameters are found in S1 Table. Peptide and protein concentrations were determined from amino acid analysis (Amino Acid Analysis Facility, SickKids, Toronto, ON).

14-3-3ζ = target: T2, 14-3-3ζ (Homo sapiens, UniProt P63104); test: ITC of Cby peptides titrated into 14-3-3ζ; details: for Kd: 25°C (298.15 K); for n (binding stoichiometry of monomeric 14-3-3 and Cby peptide): 25°C; for T∆S / ∆G / ∆H / TΔS / ΔG / ΔH: 298.15 K; for T∆S / ∆G / ∆H: duplicate set (S1 Table); for TΔS / ΔG / ΔH: pH 6.8, Table 1 set of duplicate experiments
T2 construct: Both full-length 14-3-3ζ and 14-3-3ζΔC12 were expressed as N-terminally His-tagged protein; His tag (TEV-cleavable) (N, cleaved yes); made in house; host or cells: Escherichia coli BL21 (DE3) pLysS
T2 sequence (P63104 1-245): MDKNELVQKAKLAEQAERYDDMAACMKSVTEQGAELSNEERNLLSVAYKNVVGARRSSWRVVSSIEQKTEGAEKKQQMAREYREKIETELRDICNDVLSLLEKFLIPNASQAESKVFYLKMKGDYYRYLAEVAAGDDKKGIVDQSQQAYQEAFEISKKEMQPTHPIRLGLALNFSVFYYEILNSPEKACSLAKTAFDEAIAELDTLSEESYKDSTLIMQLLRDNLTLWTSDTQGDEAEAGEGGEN
Description: as §1, §2, §3

14-3-3ζ K49A = target: T3, 14-3-3ζ K49A (Homo sapiens, UniProt P63104, K49A); test: ITC of Cby peptides titrated into 14-3-3ζ K49A; details: for n (binding stoichiometry of monomeric 14-3-3 and Cby peptide): 25°C, pH 6.8
T3 construct: His tag (TEV-cleavable) (N, cleaved yes); made in house
T3 sequence (P63104 1-245 K49A): T2 sequence (P63104 1-245) with K49A
Description: In numerous crystal structures of 14-3-3 proteins in complex with phosphorylated S/T peptides, the conserved K49 (numbering refers to the ζ isoform) side-chain is observed forming a hydrogen bond with the phosphate group on pS/pT (illustrated in S3 Fig with an elucidated 14-3-3ζ/Raf1 structure). With Cby’s S22 side-chain juxtaposed between 14-3-3ζ residues K49 and R56, the K49 side-chain is sterically hindered from contacting pS20. As such, we speculated that the increases in binding affinity to 14-3-3ζ observed for the S22P mutant peptides might be the result of the favorable contacts between K49 and pS20 facilitated by the proline-induced conformational changes. To test this, a K49A mutation was introduced into 14-3-3ζ and ITC titrations were performed with 18-mer WT and S22P Cby peptides.
as §2, §3

[1] = pH 6.8, duplicate set (S1 Table)
[2] = 298.15 K, Table 1 set of duplicate experiments
[3] = 298.15 K, duplicate set (S1 Table)
[4] = 50 mM sodium phosphate, 100 mM NaCl, 1 mM DTT, pH 6.8, one-site model, Table 1 set of duplicate experiments
[5] = 14-3-3ζ K49A in ITC cell, 298.15 K, Table 1 set of duplicate experiments
[6] = 14-3-3ζ K49A in ITC cell, 298.15 K, duplicate set (S1 Table)

CC(C)C[C@H](NC(=O)[C@H](CC(N)=O)NC(=O)[C@H](CO)NC(=O)[C@H](CC(C)C)NC(=O)[C@H](COP(=O)(O)O)NC(=O)[C@H](C)NC(=O)[C@H](CO)NC(=O)[C@H](CCCCN)NC(=O)[C@H](CCCNC(=N)N)NC(=O)[C@@H]1CCCN1C(=O)[C@@H]1CCCN1C(=O)[C@@H](NC(=O)[C@@H](N)CCCCN)[C@@H](C)O)C(=O)O [Cby 13-mer] (H-KTPPRKSA[pS]LSNL-OH)
n (binding stoichiometry of monomeric 14-3-3 and Cby peptide) (14-3-3ζΔC12; pH 6.8, Table 1 set of duplicate experiments): 0.99 | n (binding stoichiometry of monomeric 14-3-3 and Cby peptide) (14-3-3ζΔC12; [1]): 1.06 | Kd (14-3-3ζΔC12; 298.15 K, pH 6.8, duplicate set (S1 Table)): 14.5 ± 0.6 µM | TΔS (14-3-3ζΔC12; [2]): 4.50 kcal/mol | ΔG (14-3-3ζΔC12; [2]): -6.58 ± 0.04 kcal/mol | ΔH (14-3-3ζΔC12; [2]): -2.08 ± 0.03 kcal/mol | T∆S (14-3-3ζΔC12; [3]): 4.52 kcal/mol | ∆G (14-3-3ζΔC12; [3]): -6.60 ± 0.02 kcal/mol | ∆H (14-3-3ζΔC12; [3]): -2.08 ± 0.03 kcal/mol | Kd (14-3-3ζ; 50 mM sodium phosphate, 100 mM NaCl, 1 mM DTT, pH 6.8, duplicate set (S1 Table)): 12.8 ± 0.5 µM | Kd (14-3-3ζ; [4]): 14.5 ± 0.6 µM | n (binding stoichiometry of monomeric 14-3-3 and Cby peptide) (14-3-3ζ; [4]): 1.00 | n (binding stoichiometry of monomeric 14-3-3 and Cby peptide) (14-3-3ζ; [1]): 1.07 | T∆S (14-3-3ζ): 4.07 kcal/mol | ∆G (14-3-3ζ): -6.67 ± 0.02 kcal/mol | ∆H (14-3-3ζ): -2.60 ± 0.03 kcal/mol | TΔS (14-3-3ζ): 3.97 kcal/mol | ΔG (14-3-3ζ): -6.60 ± 0.02 kcal/mol | ΔH (14-3-3ζ): -2.63 ± 0.02 kcal/mol

CC(C)C[C@H](NC(=O)[C@H](CO)NC(=O)[C@H](Cc1c[nH]cn1)NC(=O)[C@H](CC(C)C)NC(=O)[C@H](CC(N)=O)NC(=O)[C@@H]1CCCN1C(=O)[C@H](CC(C)C)NC(=O)[C@H](COP(=O)(O)O)NC(=O)[C@H](C)NC(=O)[C@H](CO)NC(=O)[C@H](CCCCN)NC(=O)[C@H](CCCNC(=N)N)NC(=O)[C@@H]1CCCN1C(=O)[C@@H]1CCCN1C(=O)[C@@H](NC(=O)[C@@H](N)CCCCN)[C@@H](C)O)C(=O)N[C@@H](CC(=O)O)C(=O)N[C@@H](CCCNC(=N)N)C(=O)O [Cby 18-mer S22P] (H-KTPPRKSA[pS]LPNLHSLDR-OH)
fold tighter binding than the S22P 7-mer (14-3-3ζ): ~ 9 fold | n (binding stoichiometry of monomeric 14-3-3 and Cby peptide) (14-3-3ζ; [4]): 1.05 | n (binding stoichiometry of monomeric 14-3-3 and Cby peptide) (14-3-3ζ; [1]): 1.08 | T∆S (14-3-3ζ): 0.79 kcal/mol | ∆G (14-3-3ζ): -8.76 ± 0.02 kcal/mol | ∆H (14-3-3ζ): -7.97 ± 0.01 kcal/mol | TΔS (14-3-3ζ): 0.76 kcal/mol | ΔG (14-3-3ζ): -8.79 ± 0.02 kcal/mol | ΔH (14-3-3ζ): -8.03 ± 0.02 kcal/mol | n (binding stoichiometry of monomeric 14-3-3 and Cby peptide) (14-3-3ζ K49A; 14-3-3ζ K49A in ITC cell, Table 1 set of duplicate experiments): 1.07 | n (binding stoichiometry of monomeric 14-3-3 and Cby peptide) (14-3-3ζ K49A; 14-3-3ζ K49A in ITC cell, duplicate set (S1 Table)): 0.97 | TΔS (14-3-3ζ K49A; [5]): 0.67 kcal/mol | ΔG (14-3-3ζ K49A; [5]): -7.80 ± 0.06 kcal/mol | ΔH (14-3-3ζ K49A; [5]): -7.13 ± 0.03 kcal/mol | T∆S (14-3-3ζ K49A; [6]): 1.17 kcal/mol | ∆G (14-3-3ζ K49A; [6]): -7.84 ± 0.03 kcal/mol | ∆H (14-3-3ζ K49A; [6]): -6.67 ± 0.04 kcal/mol | ΔΔG of binding, 14-3-3ζ K49A compared to WT 14-3-3ζ (14-3-3ζ K49A; ITC, 18-mer peptides): ~ 1.0 kcal/mol | effect of 14-3-3ζ K49A mutation on binding affinity (fold reduction) (14-3-3ζ K49A; ITC, versus WT 14-3-3ζ): ~ 5 fold
